These results are taken from patent US11466032B2, “Cytotoxic agents” (FEMTOGENIX LIMITED, priority 2017, dated 2022).

This experiment deals with linear 32P-end-labelled HexA DNA. Kind of experiment: DNA interstrand cross-linking assay (denaturing polyacrylamide gel). The format is biochemical. Conditions: overnight incubation at 37° C. As to the method: The ability of 26 and 34 to cross-link DNA was determined using an assay involving linear double-stranded HexA. TyrT and MS1 DNA fragments (FIG. 5).
Following denaturation conditions (treatment with formamide and heating at 65° C. for 5 min) the DNA strands were completely separated (see control C2, FIG. 6). The presence of an interstrand cross-link holds the denatured strands in close proximity, and cross-linked adducts therefore run as double-stranded DNA on polyacrylamide gel. Talirine and 34 were tested at >10 different concentrations, and the assay was repeated twice. […] C1 and C2 represent controls where C1 is DNA without formic acid, and C2 is DNA without formic acid, but heated thereby forming single strands. Cross-links are clearly detectable at concentrations as low as 10 nM. Using the same assay, the PBD dimer Talirine was also shown to cross-link DNA down to a concentration of 10 nM (FIG. 7).
The preparation of the DNA fragments (FIG. 5) has been previously described^[4]. Briefly, the sequence which had been cloned into the BamHI site of pUC18 was obtained by cutting with HindIII and EcoRI. Radiolabelled DNA fragments were prepared by filling in the 3′-end of the HindIII site with [α-^32P]dATP using Klenow DNA polymerase (exo-).
The radiolabelled DNA fragment was separated from the remainder of the plasmid DNA on a 6% non-denaturing polyacrylamide gel. […]

In the case of `CNS(=O)(=O)c1ccc(C2=CCN3C(=O)c4cc(OC)c(OCc5cccc(COc6cc7c(cc6OC)C(=O)N6CC=C(c8ccc(S(=O)(=O)NC)cc8)C[C@H]6C=N7)n5)cc4N=C[C@@H]3C2)cc1` [Compound 34, 4,4′-((6aS,6a′S)-((Pyridine-2,6-diylbis(methylene))bis(oxy))bis(2-methoxy-12-oxo-6a,7,10,12-tetrahydrobenzo[e]pyrido[1,2-α][1,4]diazepine-3,8-diyl))bis(N-methylbenzenesulfonamide)], the “lowest concentration at which DNA interstrand cross-links are detectable” value is 10 nM.
